Assay results from patent US20200023001A1, “GlycoFix (Structurally And Functionally Repaired Endothelial Glycocalyx)” (Northeastern University, priority 2018, published 2020).

Tested on: RFPEC
Assay: PEG-AuNP uptake by RFPEC under glycocalyx conditions (confocal red fluorescence)
Format: cell-based, rat
Conditions: repaired glycocalyx (Hep III, then 59 μg/mL exogenous HS); 550 μg/mL PEG-AuNP, 16 hours
Protocol: RFPEC Culture. A rat fat pad endothelial cell (RFPEC) line^37 was utilized, originally isolated from rat epididymal fat pads by Dr. Mia Thi of Albert Einstein College of Medicine (Bronx, N.Y., USA). RFPECs were selected for their ability to naturally express a robust glycocalyx.^38 These ECs were cultured in tissue culture flasks at 37° C. and 5% CO2 in a humidified environment with Dulbecco's Modified Eagle's Medium (DMEM) supplemented with 10% fetal bovine serum (FBS) and 1% penicillin-streptomycin, all purchased from Thermo Fisher Scientific (Waltham, Mass., USA). For 3-(4,5-dimethylthiazol-2-yl)-5-(3-carboxymethoxyphenyl)-2-(4-sulfophenyl)-2H-tetrazolium (MTS) assays (Sigma-Aldrich Co., St Louis, Mo., USA), RFPECs were seeded at 3.7×10^4 cells/cm^2 in tissue culture-treated, 96-well plates (Falcon; Thermo Fisher Scientific) and imaged on a SpectraMax M3 plate reader to show cell viability and metabolic activity. […]
PEG-AuNP. […] After dialysis in 12-14 kDa molecular weight cutoff tubes (EMD Millipore, Billerica, Mass., USA) and lyophilization, an Alexa Fluor 647 N-hydroxysuccinimide (NHS) ester (succinimidyl ester) was conjugated onto the NH2 functional groups on the AuNP to allow for visualization under fluorescence. […] PEG-AuNP fluorescence activity was confirmed using a Jobin Yvon Fluoromax 4. […]

heparan sulfate [HS]
PEG-AuNP uptake relative to cells with healthy, intact glycocalyx: 1.3±0.3 fold
